In one data set the target is Tau (Homo sapiens, UniProt P10636). Kind of data set: Tau competition binding in human AD brain homogenate with 18F-labeled Tau binder. The conditions noted are these: for Binding affinity for Tau (in words): IC50 determined in AD brain homogenate, compared with 3a. The procedure: (§1) 20 μg of human Alzheimer disease brain homogenate was incubated with a dilution series of each test compound (1000 to 0.06 nM) in the presence of 800 Bq of ^18F-labeled Tau binder. The samples were shaken at 110 rpm for 45 min at 37° C. Samples were then filtered through GF/B 96 well filter plates and washed twice with 300 μL assay buffer (PBS containing 0.1% BSA and 2% DMSO). Thereafter, filter plates were sealed and a Fuji Film Imaging Plate (BAS-SR2025) was placed on top. The imaging plate was analyzed after overnight exposition using a Fuji Film BAS-5000. Non-specific signal was determined with samples containing ^18F-labeled Tau-reference binder in the presence of assay buffer without brain substrate and competitor. […] The unblocked ^18F-labeled Tau-binder signal was defined as total binding. IC50 values were calculated by Prism V6 (GraphPad) setting total binding to 100%.

The next data set deals with amyloid-beta (Homo sapiens, UniProt P05067). Put plainly: Binding affinity to amyloid-beta in AD brain homogenate. To be noted: human AD brain homogenate; non-radioactive derivatives. On the procedure: as §1, with “beta-amyloid” for “Tau”, “beta-amyloid” for “Tau-reference”, “beta-amyloid binder” for “Tau-binder”
For data set [1], the target named is T1, MAO A (Mus musculus, UniProt Q64133).
T1 construct: from tissue; host or cells: whole mouse brain homogenate
T1 sequence (Q64133 1-526): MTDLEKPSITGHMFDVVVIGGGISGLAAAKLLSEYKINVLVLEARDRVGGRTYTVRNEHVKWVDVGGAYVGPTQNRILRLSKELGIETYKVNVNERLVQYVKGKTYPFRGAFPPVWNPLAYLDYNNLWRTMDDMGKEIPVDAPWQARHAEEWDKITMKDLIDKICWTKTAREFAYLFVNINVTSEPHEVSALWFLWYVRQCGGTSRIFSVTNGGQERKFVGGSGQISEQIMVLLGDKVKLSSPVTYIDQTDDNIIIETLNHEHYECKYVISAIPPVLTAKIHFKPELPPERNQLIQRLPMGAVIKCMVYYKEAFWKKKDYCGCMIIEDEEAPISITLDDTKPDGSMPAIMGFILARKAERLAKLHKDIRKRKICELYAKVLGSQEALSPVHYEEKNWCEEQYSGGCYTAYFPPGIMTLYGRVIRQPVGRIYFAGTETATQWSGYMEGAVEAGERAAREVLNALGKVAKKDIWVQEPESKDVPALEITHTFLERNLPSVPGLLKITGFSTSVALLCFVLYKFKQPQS
Put plainly: MAO A 18F-FEH competition assay in mouse brain homogenate. The conditions noted are these: for Selectivity over MAO A (in words): compared with 3a. Type of data set: binding.

The target in data set [2] is T2, MAO A (Homo sapiens, UniProt P21397).
T2 construct: 20 μg of human brain homogenate (without AD pathology); from tissue; host or cells: human brain homogenate without AD pathology (healthy control)
T2 sequence (P21397 1-527): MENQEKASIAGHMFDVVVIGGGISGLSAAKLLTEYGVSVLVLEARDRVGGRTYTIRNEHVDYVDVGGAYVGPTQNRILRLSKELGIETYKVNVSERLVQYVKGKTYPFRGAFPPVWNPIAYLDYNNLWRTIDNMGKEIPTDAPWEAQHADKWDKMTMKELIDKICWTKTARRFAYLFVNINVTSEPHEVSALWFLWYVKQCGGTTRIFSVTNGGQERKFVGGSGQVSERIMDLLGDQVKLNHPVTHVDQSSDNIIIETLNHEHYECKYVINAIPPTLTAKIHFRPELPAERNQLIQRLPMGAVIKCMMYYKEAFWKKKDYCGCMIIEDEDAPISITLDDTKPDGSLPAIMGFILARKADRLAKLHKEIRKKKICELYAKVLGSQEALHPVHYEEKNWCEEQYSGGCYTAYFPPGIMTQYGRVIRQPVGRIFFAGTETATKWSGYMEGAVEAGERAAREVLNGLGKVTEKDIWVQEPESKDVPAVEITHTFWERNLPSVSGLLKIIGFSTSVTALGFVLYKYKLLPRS
Kind of data set: MAO A FEH competition assay in human HC brain homogenate. It counts as binding. To be noted: human healthy control brain homogenate; FEH competition. On the procedure: as §1, with “human” for “human Alzheimer disease”, “homogenate (without AD pathology)” for “homogenate”, “MAO-A binder ([^18F]fluoroethyl harmine, FEH).” for “Tau binder.”, “FEH” for “Tau-reference binder”, “FEH” for “Tau-binder”

For a further data set, the target named is T3, MAO B (Homo sapiens, UniProt P27338).
T3 construct: 20 μg of human brain homogenate (without AD pathology); from tissue; host or cells: human brain homogenate without AD pathology (healthy control)
T3 sequence (P27338 1-520): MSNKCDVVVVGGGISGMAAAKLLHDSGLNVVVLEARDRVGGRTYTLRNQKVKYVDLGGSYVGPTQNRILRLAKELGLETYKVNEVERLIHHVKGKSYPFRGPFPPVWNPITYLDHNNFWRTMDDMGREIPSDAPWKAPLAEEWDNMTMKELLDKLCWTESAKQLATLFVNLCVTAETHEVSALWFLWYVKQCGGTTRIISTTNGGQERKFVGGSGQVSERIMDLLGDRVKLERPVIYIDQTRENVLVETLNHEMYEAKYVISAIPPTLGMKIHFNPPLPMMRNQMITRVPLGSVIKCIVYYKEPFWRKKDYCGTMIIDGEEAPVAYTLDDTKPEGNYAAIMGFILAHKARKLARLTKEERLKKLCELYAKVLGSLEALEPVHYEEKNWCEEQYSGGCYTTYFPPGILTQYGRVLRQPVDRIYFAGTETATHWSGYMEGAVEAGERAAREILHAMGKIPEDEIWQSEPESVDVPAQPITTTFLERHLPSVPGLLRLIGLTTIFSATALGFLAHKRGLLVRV
Kind of data set: MAO B 18F-fluoro deprenyl competition assay in human HC brain homogenate. Type of data set: binding. The procedure:
The samples were shaken at 110 rpm for 45 min at 37° C. Samples were then filtered through GF/B 96 well filter plates and washed twice with 300 μL assay buffer (PBS containing 0.1% BSA and 2% DMSO). Thereafter, filter plates were sealed and a Fuji Film Imaging Plate (BAS-SR2025) was placed on top. The imaging plate was analyzed after overnight exposition using a Fuji Film BAS-5000. […] IC50 values were calculated by Prism V6 (GraphPad) setting total binding to 100%.

The nature of data set [3]: PK studies in healthy mice (PET). Type of data set: in vivo, NMRI mice. To be noted: 18F tracer; for Mouse PK De-fluorination: bone uptake, footnote f: no de-fluorination detected; for Mouse PK Uptake: brain; for Mouse PK Washout: ratio of uptake peak/30 min. The procedure:
NMRI mice (weight range 25-35 g) were injected intravenously with the ^18F-labeled compounds. Up to 150 μL of 1×PBS solution with 10%-15% EtOH or dilution medium ([…]) containing the ^18F-labeled compound (2-10 MBq) were injected. Anesthesia with isoflurane was induced before injection of the tracer and maintained during the image acquisition period. PET scans were performed using a SIEMENS INVEON small animal PET/CT scanner (Siemens, Knoxville, Tenn.). PET acquisition was started immediately before the radioactive dose was injected into the animal through the tail vein. Images were generated as dynamic scans for 60 minutes.
The peak uptake in the brain was set to 100% and washout curves were generated to evaluate the clearance of the activity from the normal brain (FIG. 2).

Where [4] appears, read: human AD brain homogenate, determined with non-radioactive F-1, F-2, F-3a, read-out: IC50 for tau binding in AD brain homogenate.
Setting [5] is: 18F-FEH competition, non-radioactive derivatives, read-out: IC50 MAO A in mouse brain homogenate.
[6] abbreviates: IC50 in AD brain homogenate, non-radioactive fluorine-19 derivatives, read-out: high Tau binding.
[7] abbreviates: grade, AD brain homogenate, non-radioactive fluorine-19 derivatives, read-out: high Tau binding.
Where [8] appears, read: IC50 in mouse brain homogenate, fluorine-19 derivatives, read-out: low MAO A binding.
Setting [9] is: grade, IC50 in mouse brain homogenate, fluorine-19 derivatives, read-out: low MAO A binding.

Where “and” joins values, the source holds several entries; their conditions need not be identical. Identical values can stand only once. Like-named read-outs stand apart in the source and are kept apart here.

amyloid-beta, sequence (P05067 672-711 limits assumed): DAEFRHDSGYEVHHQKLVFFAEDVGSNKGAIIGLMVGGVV
Tau, sequence (P10636 623-708 limits assumed): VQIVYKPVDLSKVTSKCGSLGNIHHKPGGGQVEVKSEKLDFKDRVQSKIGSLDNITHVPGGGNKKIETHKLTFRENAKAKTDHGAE

For `Fc1ccc(-c2ccc3c(c2)[nH]c2ccncc23)cn1` [Example F-1], the IC50 at Tau (setting [4]) is less than 2 nM; at amyloid-beta, greater than 1000 nM; at MAO A [1] (setting [5]), 22 nM; at MAO A [2] it was 5 nM; at MAO B, 170 nM.

For the compound `Fc1ccc(-c2ccc3c(n2)[nH]c2ccncc23)cn1` [Example F-2], the IC50 on Tau (setting [6]) was less than 5 nM; on Tau (setting [7]), less than 5 nM; at Tau (setting [4]), less than 2 nM; on amyloid-beta it was greater than 1000 nM; on MAO A [1] (setting [5]) it was 475 nM; on MAO A [2], 100 nM. The “Selectivity over MAO A (in words)” value at MAO A [1] is recorded as “Inferior”. Further, the “Mouse PK De-fluorination” value in data set [3] was “(6.2% ID/g)”. Besides, in data set [3], the “Mouse PK Uptake” value is reported as “(5.7% ID/g)”. In data set [3], the “Mouse PK Washout” value is given as “(10.9)”.

`Fc1cc(-c2ccc3c(n2)[nH]c2ccncc23)ccn1` [Example F-3a]: the IC50 was less than 5 nM on Tau (setting [6]); less than 5 nM on Tau (setting [7]); less than 2 nM at Tau (setting [4]); greater than 1000 nM at amyloid-beta; 1400 nM on MAO A [1] (setting [5]); greater than 1000 nM on MAO A [1] (setting [8]). Moreover, the IC50 at MAO A [1] (setting [9]) is greater than 1000 nM; on MAO A [2] it was 1100 nM and 530 nM. Moreover, the “Mouse PK De-fluorination” value in data set [3] is reported as “(<0.5% ID/g)^f”. In addition, the “Mouse PK Uptake” value in data set [3] is “(4.4-5.9% ID/g) ^”. The “Mouse PK Washout” value in data set [3] is given as “(11.2-16.6)”.

Regarding `Fc1ccnc(-c2ccc3c(n2)[nH]c2ccncc23)c1` [Example F-9], on Tau, the “Binding affinity for Tau (in words)” value is on record as “inferior”. Also, the IC50 was 8.4 nM on Tau (setting [6]), greater than 1000 nM on MAO A [1] (setting [8]) and greater than 1000 nM on MAO A [1] (setting [9]).

As for `Fc1cncc(-c2ccc3c(n2)[nH]c2ccncc23)c1` [Example F-5], the “Binding affinity for Tau (in words)” value on Tau is on record as “inferior”. The IC50 on Tau (setting [6]) amounted to 6.3 nM. Moreover, on MAO A [1] (setting [8]), the IC50 is greater than 1000 nM. The IC50 at MAO A [1] (setting [9]) is greater than 1000 nM. In addition, in data set [3], the “Mouse PK De-fluorination” value is “(2.9% ID/g)”, the “Mouse PK Uptake” value is reported as “(5.3% ID/g)” and the “Mouse PK Washout” value is “(9.6)”.

Consider `Fc1cccc(-c2ccc3c(n2)[nH]c2ccncc23)n1` [Example F-7], for which, on Tau, the “Binding affinity for Tau (in words)” value is reported as “inferior”. Besides, the IC50 on Tau (setting [6]) was determined as 7.1 nM. The IC50 on MAO A [1] (setting [8]) was determined as 268 nM. For the same compound, at MAO A [1], the “Selectivity over MAO A (in words)” value is “Inferior”. In data set [3], the “Mouse PK De-fluorination” value was “(11.1% ID/g)”, the “Mouse PK Uptake” value is “(8.5% ID/g)” and the “Mouse PK Washout” value is reported as “(7.0)”.

On to `Fc1cccnc1-c1ccc2c(n1)[nH]c1ccncc12` [Example F-10], for which the “Binding affinity for Tau (in words)” value at Tau is reported as “poor”. For the same compound, on Tau (setting [6]), the IC50 was 103 nM. The compound further gave an IC50 on MAO A [1] (low MAO A binding [nM], IC50 in mouse brain homogenate, fluorine-19 derivatives) greater than 1000 nM. On MAO A [1] (low MAO A binding, grade, IC50 in mouse brain homogenate, fluorine-19 derivatives), the IC50 is greater than 1000 nM. Further, in data set [3], the “Mouse PK De-fluorination” value was “(6.2% ID/g)”, the “Mouse PK Uptake” value is listed as “(2.1% ID/g)” and the “Mouse PK Washout” value was “(3.6)”.

Consider `Fc1cnccc1-c1ccc2c(n1)[nH]c1ccncc12` [Example F-3b], for which the values for the IC50 on Tau (setting [6]), on Tau (setting [7]) and at MAO A [1] (setting [8]) were less than 5 nM, less than 5 nM and 765 nM, respectively. In addition, in data set [3], the “Mouse PK Uptake” value is on record as “(4.0% ID/g)”. Further, in data set [3], the “Mouse PK Washout” value is “(19.4)”.

In the case of `Fc1ccncc1-c1ccc2c(n1)[nH]c1ccncc12` [Example F-6], the “Binding affinity for Tau (in words)” value at Tau was “poor”. Besides, the figures for the IC50 on Tau (setting [6]), at MAO A [1] (setting [8]) and on MAO A [1] (setting [9]) were 43 nM, greater than 1000 nM and greater than 1000 nM, respectively. In data set [3], the “Mouse PK De-fluorination” value is recorded as “(4.8% ID/g)”. Further, in data set [3], the “Mouse PK Uptake” value is “(8.2% ID/g)”. Besides, the “Mouse PK Washout” value in data set [3] was “(14.5)”.

For the compound `Fc1ccc(-c2ccc3c(n2)[nH]c2ccncc23)nc1` [Example F-8], the IC50 on Tau (setting [6]) is less than 5 nM; at Tau (setting [7]), less than 5 nM; at MAO A [1] (setting [8]), 75 nM. Besides, on MAO A [1], the “Selectivity over MAO A (in words)” value is reported as “Inferior”.

The record behind these values is patent publication US10835624B2, “Compounds for imaging Tau protein aggregates” (AC IMMUNE S.A., priority 2016, dated 2020).
